Laboratory results published in ChEMBL document CHEMBL3885861, “Open TG-GATES”.

Species on record: Rattus norvegicus
Test: Open TG-GATES - Regimen: Single
Assay type: toxicity, organism-based, Sprague-Dawley
Parameters: regimen Single, gender Male, age 6 weeks
Conditions: in vivo, po, 30 mg/kg, route gavage, dose level Low; for APTT / Bas / Eos / Fbg / Hb / Ht / Lym / MCH / MCHC / MCV / Mono / Neu / PT / Plat / RBC / Ret / WBC: tissue Blood; for KIDNEY_L / KIDNEY_R / KIDNEY_TOTAL: tissue Kidney; for LIVER: tissue Liver; for A/G / ALP / ALT / AST / BUN / CRE / Ca / Cl / DBIL / GLC / IP / K / LDH / Na / PL / RALB / TBIL / TC / TG / TP / gamma-GTP: tissue Plasma

Structure (SMILES): CCCNC(=O)NS(=O)(=O)c1ccc(Cl)cc1 [CHLORPROPAMIDE]
- TERMINAL_BW (3 h): 200 g
- APTT (3 h): 16.8 s
- Bas (3 h): 0.4%
- Eos (3 h): 0.8%
- Fbg (3 h): 301.8 mg/dL
- Hb (3 h): 13.1 g/dL
- Ht (3 h): 40%
- Lym (3 h): 76.8%
- MCH (3 h): 20.9 pg
- MCHC (3 h): 32.7%
- MCV (3 h): 64 fL
- Mono (3 h): 3.6%
- Neu (3 h): 17.8%
- PT (3 h): 15.6 s
- Plat (3 h): 122.9 x10_4/uL
- RBC (3 h): 625.4 x10_4/ul
- Ret (3 h): 9.8%
- WBC (3 h): 80.3 x10_2/uL
- KIDNEY_L (3 h): 0.9 g
- KIDNEY_R (3 h): 0.9 g
- KIDNEY_TOTAL (3 h): 1.8 g
- LIVER (3 h): 8.7 g
- A/G (3 h): 0.9
- ALP (3 h): 1308.8 IU/L
- ALT (3 h): 44 IU/L
- AST (3 h): 74.4 IU/L
- BUN (3 h): 10.6 mg/dL
- CRE (3 h): 0.2 mg/dL
- Ca (3 h): 10.8 mg/dL
- Cl (3 h): 106.2 meq/L
- DBIL (3 h): 0.008 mg/dL
- GLC (3 h): 154.4 mg/dL
- IP (3 h): 9.5 mg/dL
- K (3 h): 4 meq/L
- LDH (3 h): 83.6 IU/L
- Na (3 h): 143 meq/L
- PL (3 h): 131.4 mg/dL
- RALB (3 h): 2.5 g/dL
- TBIL (3 h): 0.038 mg/dL
- TC (3 h): 74.2 mg/dL
- TG (3 h): 47.2 mg/dL
- TP (3 h): 5.4 g/dL
- gamma-GTP (3 h): 1.2 IU/L
- TERMINAL_BW (6 h): 197.5 g
- APTT (6 h): 17.5 s
- Bas (6 h): 0.2%
- Eos (6 h): 1%
- Fbg (6 h): 277.8 mg/dL
- Hb (6 h): 13.3 g/dL
- Ht (6 h): 40.8%
- Lym (6 h): 74.4%
- MCH (6 h): 21 pg
- MCHC (6 h): 32.7%
- MCV (6 h): 64.3 fL
- Mono (6 h): 2.8%
- Neu (6 h): 20.4%
- PT (6 h): 15.4 s
- Plat (6 h): 114.9 x10_4/uL
- RBC (6 h): 633.4 x10_4/ul
- Ret (6 h): 9.6%
- WBC (6 h): 80.6 x10_2/uL
- KIDNEY_L (6 h): 0.9 g
- KIDNEY_R (6 h): 0.9 g
- KIDNEY_TOTAL (6 h): 1.8 g
- LIVER (6 h): 8.1 g
- A/G (6 h): 0.9
- ALP (6 h): 1395.6 IU/L
- ALT (6 h): 41 IU/L
- AST (6 h): 75.4 IU/L
- BUN (6 h): 9 mg/dL
- CRE (6 h): 0.2 mg/dL
- Ca (6 h): 10.5 mg/dL
- Cl (6 h): 106.8 meq/L
- DBIL (6 h): 0.004 mg/dL
- GLC (6 h): 150.8 mg/dL
- IP (6 h): 9.4 mg/dL
- K (6 h): 4.2 meq/L
- LDH (6 h): 72.6 IU/L
- Na (6 h): 143 meq/L
- PL (6 h): 123.6 mg/dL
- RALB (6 h): 2.5 g/dL
- TBIL (6 h): 0.036 mg/dL
- TC (6 h): 74.2 mg/dL
- TG (6 h): 35.4 mg/dL
- TP (6 h): 5.2 g/dL
- gamma-GTP (6 h): 1 IU/L
- TERMINAL_BW (9 h): 194.6 g
- APTT (9 h): 16.9 s
- Bas (9 h): 0%
- Eos (9 h): 1.2%
- Fbg (9 h): 296 mg/dL
- Hb (9 h): 13.2 g/dL
- Ht (9 h): 40.5%
- Lym (9 h): 77.4%
- MCH (9 h): 21.4 pg
- MCHC (9 h): 32.6%
- MCV (9 h): 65.5 fL
- Mono (9 h): 3.2%
- Neu (9 h): 17.2%
- PT (9 h): 15.4 s
- Plat (9 h): 118 x10_4/uL
- RBC (9 h): 618.6 x10_4/ul
- Ret (9 h): 9.1%
- WBC (9 h): 84.5 x10_2/uL
- KIDNEY_L (9 h): 0.9 g
- KIDNEY_R (9 h): 0.9 g
- KIDNEY_TOTAL (9 h): 1.7 g
- LIVER (9 h): 7.7 g
- A/G (9 h): 0.9
- ALP (9 h): 1280.4 IU/L
- ALT (9 h): 38 IU/L
- AST (9 h): 70.8 IU/L
- BUN (9 h): 9.8 mg/dL
- CRE (9 h): 0.2 mg/dL
- Ca (9 h): 10.6 mg/dL
- Cl (9 h): 107.8 meq/L
- DBIL (9 h): 0.002 mg/dL
- GLC (9 h): 158.4 mg/dL
- IP (9 h): 9.8 mg/dL
- K (9 h): 4.1 meq/L
- LDH (9 h): 62.2 IU/L
- Na (9 h): 143.4 meq/L
- PL (9 h): 134 mg/dL
- RALB (9 h): 2.5 g/dL
- TBIL (9 h): 0.032 mg/dL
- TC (9 h): 81.4 mg/dL
- TG (9 h): 43.4 mg/dL
- TP (9 h): 5.4 g/dL
- gamma-GTP (9 h): 1 IU/L
- TERMINAL_BW (24 h): 210.7 g
- APTT (24 h): 26 s
- Bas (24 h): 0%
- Eos (24 h): 1%
- Fbg (24 h): 290 mg/dL
- Hb (24 h): 13 g/dL
- Ht (24 h): 40.1%
- Lym (24 h): 79.2%
- MCH (24 h): 21.4 pg
- MCHC (24 h): 32.4%
- MCV (24 h): 65.9 fL
- Mono (24 h): 3%
- Neu (24 h): 15.2%
- PT (24 h): 15.6 s
- Plat (24 h): 120.5 x10_4/uL
- RBC (24 h): 608.2 x10_4/ul
- Ret (24 h): 8.4%
- WBC (24 h): 96.6 x10_2/uL
- KIDNEY_L (24 h): 0.9 g
- KIDNEY_R (24 h): 0.9 g
- KIDNEY_TOTAL (24 h): 1.9 g
- LIVER (24 h): 9.6 g
- A/G (24 h): 0.9
- ALP (24 h): 1710 IU/L
- ALT (24 h): 47.6 IU/L
- AST (24 h): 73 IU/L
- BUN (24 h): 15 mg/dL
- CRE (24 h): 0.2 mg/dL
- Ca (24 h): 10.8 mg/dL
- Cl (24 h): 105.4 meq/L
- DBIL (24 h): 0.01 mg/dL
- GLC (24 h): 192.8 mg/dL
- IP (24 h): 8.4 mg/dL
- K (24 h): 4.1 meq/L
- LDH (24 h): 78.4 IU/L
- Na (24 h): 142.4 meq/L
- PL (24 h): 150.2 mg/dL
- RALB (24 h): 2.6 g/dL
- TBIL (24 h): 0.034 mg/dL
- TC (24 h): 84 mg/dL
- TG (24 h): 73.8 mg/dL
- TP (24 h): 5.5 g/dL
- gamma-GTP (24 h): 1 IU/L
